# According to patent US20020111274A1, “1-alkyl-3-[1-(substituted phenyl) benzotriazol-6-yl] uracils” (BASF Aktiengesellschaft, priority 2000, published 2002):
# What was measured:
# Parameters in all cases: scale not given here
# AMBEL Ragweed, Common = assay: Preemergence herbicidal evaluation, AMBEL; type: in vivo, Ambrosia artemisifolia, L.; conditions: preemergence
# Method in brief: (§1)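 First, seed is blended with potting soil and sown over roughly an inch of soil per cup. Next, the surface is sprayed with an aqueous acetone solution delivering about 0.013–0.800 kg/ha. Finally, cups are grown in the greenhouse and rated after 4–5 weeks.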
# ORYSAT Rice, Tebonnet [1] = assay: Preemergence herbicidal evaluation, ORYSAT; type: in vivo, Oryza sativa, (L.); conditions: preemergence
# Method in brief: as §1
# SETVI Foxtail, Green = assay: Preemergence herbicidal evaluation, SETVI; type: in vivo, Setaria viridis, (L.) Beau; conditions: preemergence
# Method in brief: as §1
# GLXMAW Soybean, Williams [2] = assay: Postemergence herbicidal evaluation, GLXMAW; type: in vivo, Glycine max, (L.) Merr. cv Williams; conditions: postemergence spray, rated about two-three weeks after treatment
# Method in brief: (§2)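 For this test, compound in an 80/20 acetone/water vehicle with 1.0% seed oil was sprayed over two-week-old seedlings at about 0.006 to 0.400 kg per hectare. Injury was assessed visually two to three weeks on.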
# ZEAMX Corn, Field = assay: Preemergence herbicidal evaluation, ZEAMX; type: in vivo, Zea mays, L. (Sammel-Bezeichnung); conditions: preemergence
# Method in brief: as §1
# CASOB Sicklepod = assay: Postemergence herbicidal evaluation, CASOB; type: in vivo, Cassia obtusifolia, L.; conditions: postemergence spray, rated about two-three weeks after treatment
# Method in brief: as §2
# GALAP Galium = assay: Postemergence herbicidal evaluation, GALAP; type: in vivo, Galium aparine; conditions: postemergence spray, rated about two-three weeks after treatment
# Method in brief: as §2
# ORYSAT Rice, Tebonnet [3] = assay: Postemergence herbicidal evaluation, ORYSAT; type: in vivo, Oryza sativa, (L.); conditions: postemergence spray, rated about two-three weeks after treatment
# Method in brief: as §2
# [4] = tested on: CHEAL Lambsquarters, Common; assay: Postemergence herbicidal evaluation, CHEAL; type: in vivo, Chenopodium album, L.; conditions: postemergence spray, rated about two-three weeks after treatment
# Method in brief: as §2
# ABUTH Velvetleaf = assay: Postemergence herbicidal evaluation, ABUTH; type: in vivo, Abutilon theophrasti, Medic.; conditions: postemergence spray, rated about two-three weeks after treatment
# Method in brief: as §2
# GLXMAW Soybean, Williams [5] = assay: Preemergence herbicidal evaluation, GLXMAW; type: in vivo, Glycine max, (L.) Merr. cv Williams; conditions: preemergence
# Method in brief: as §1
# [6] = tested on: TRZAWR Wheat, Winter, cv Riband; assay: Preemergence herbicidal evaluation, TRZAWR; type: in vivo, Triticum aestivum; conditions: preemergence
# Method in brief: as §1
structure (smiles),measurement,setting,value
COC(=O)COc1ccc(-n2nnc3cc(F)c(-n4c(=O)cc(C(F)(F)F)n(C)c4=O)cc32)c(C)c1 [Example 39],AMBEL herbicidal rating,"AMBEL Ragweed, Common; rate 0.016 kg/ha",0.0
same,AMBEL herbicidal rating,"AMBEL Ragweed, Common; rate 0.032 kg/ha",0.0
same,AMBEL herbicidal rating,"AMBEL Ragweed, Common; rate 0.062 kg/ha",0.0
same,AMBEL herbicidal rating,"AMBEL Ragweed, Common; rate 0.125 kg/ha",0.0
same,ORYSAT herbicidal rating,"ORYSAT Rice, Tebonnet [1]; rate 0.016 kg/ha",0.0
same,ORYSAT herbicidal rating,"ORYSAT Rice, Tebonnet [1]; rate 0.032 kg/ha",0.0
same,ORYSAT herbicidal rating,"ORYSAT Rice, Tebonnet [1]; rate 0.062 kg/ha",0.0
same,ORYSAT herbicidal rating,"ORYSAT Rice, Tebonnet [1]; rate 0.125 kg/ha",3.0
same,SETVI herbicidal rating,"SETVI Foxtail, Green; rate 0.016 kg/ha",0.0
same,SETVI herbicidal rating,"SETVI Foxtail, Green; rate 0.032 kg/ha",0.0
same,SETVI herbicidal rating,"SETVI Foxtail, Green; rate 0.062 kg/ha",0.0
same,SETVI herbicidal rating,"SETVI Foxtail, Green; rate 0.125 kg/ha",4.0
same,Postemergence herbicidal rating GLXMAW,"GLXMAW Soybean, Williams [2]; 0.008 kg/ha",3.5
same,Postemergence herbicidal rating GLXMAW,"GLXMAW Soybean, Williams [2]; 0.016 kg/ha",3.5
same,Postemergence herbicidal rating GLXMAW,"GLXMAW Soybean, Williams [2]; 0.032 kg/ha",4.0
same,Postemergence herbicidal rating GLXMAW,"GLXMAW Soybean, Williams [2]; 0.062 kg/ha",5.0
same,ZEAMX herbicidal rating,"ZEAMX Corn, Field; rate 0.016 kg/ha",0.0
same,ZEAMX herbicidal rating,"ZEAMX Corn, Field; rate 0.032 kg/ha",0.0
same,ZEAMX herbicidal rating,"ZEAMX Corn, Field; rate 0.062 kg/ha",0.0
same,ZEAMX herbicidal rating,"ZEAMX Corn, Field; rate 0.125 kg/ha",0.0
same,Postemergence herbicidal rating CASOB,CASOB Sicklepod; 0.008 kg/ha,0.0
same,Postemergence herbicidal rating CASOB,CASOB Sicklepod; 0.016 kg/ha,0.0
same,Postemergence herbicidal rating CASOB,CASOB Sicklepod; 0.032 kg/ha,0.0
same,Postemergence herbicidal rating CASOB,CASOB Sicklepod; 0.062 kg/ha,2.0
same,Postemergence herbicidal rating GALAP,GALAP Galium; 0.008 kg/ha,0.0
same,Postemergence herbicidal rating GALAP,GALAP Galium; 0.016 kg/ha,0.0
same,Postemergence herbicidal rating GALAP,GALAP Galium; 0.032 kg/ha,3.0
same,Postemergence herbicidal rating GALAP,GALAP Galium; 0.062 kg/ha,3.0
same,Postemergence herbicidal rating ORYSAT,"ORYSAT Rice, Tebonnet [3]; 0.008 kg/ha",0.0
same,Postemergence herbicidal rating ORYSAT,"ORYSAT Rice, Tebonnet [3]; 0.016 kg/ha",0.5
same,Postemergence herbicidal rating ORYSAT,"ORYSAT Rice, Tebonnet [3]; 0.032 kg/ha",1.0
same,Postemergence herbicidal rating ORYSAT,"ORYSAT Rice, Tebonnet [3]; 0.062 kg/ha",4.0
same,Postemergence herbicidal rating CHEAL,[4]; 0.008 kg/ha,0.0
same,Postemergence herbicidal rating CHEAL,[4]; 0.016 kg/ha,2.0
same,Postemergence herbicidal rating CHEAL,[4]; 0.032 kg/ha,2.0
same,Postemergence herbicidal rating CHEAL,[4]; 0.062 kg/ha,7.0
same,Postemergence herbicidal rating ABUTH,ABUTH Velvetleaf; 0.008 kg/ha,9.0
same,Postemergence herbicidal rating ABUTH,ABUTH Velvetleaf; 0.016 kg/ha,9.0
same,Postemergence herbicidal rating ABUTH,ABUTH Velvetleaf; 0.032 kg/ha,9.0
same,Postemergence herbicidal rating ABUTH,ABUTH Velvetleaf; 0.062 kg/ha,9.0
same,GLXMAW herbicidal rating,"GLXMAW Soybean, Williams [5]; rate 0.016 kg/ha",0.0
same,GLXMAW herbicidal rating,"GLXMAW Soybean, Williams [5]; rate 0.032 kg/ha",0.0
same,GLXMAW herbicidal rating,"GLXMAW Soybean, Williams [5]; rate 0.062 kg/ha",0.0
same,GLXMAW herbicidal rating,"GLXMAW Soybean, Williams [5]; rate 0.125 kg/ha",0.0
same,TRZAWR herbicidal rating,[6]; rate 0.016 kg/ha,0.0
same,TRZAWR herbicidal rating,[6]; rate 0.032 kg/ha,0.0
same,TRZAWR herbicidal rating,[6]; rate 0.062 kg/ha,0.0
same,TRZAWR herbicidal rating,[6]; rate 0.125 kg/ha,0.0
